One series relates to heparin. The experiment in a line: Direct interaction of inhibitor compounds with immobilized heparin (pre-incubation versus co-incubation with GBVP). Type of series: binding. Conditions: for Inhibition (%) Co-incubation: GBVP co-incubated with compound for 90 min in control wells; for Inhibition (%) Pre-Incubation: compound pre-incubated with immobilized heparin 90 min, washed, then GBVP added. The method, then:
Compounds found to be suitable for further development and chemical optimization may be further subjected to a second screening, identifying those that directly bind to heparin. Individual compounds are incubated with immobilized heparin in the absence of CMV envelope glycoprotein B. After washing of the plates to remove all unbound compound, CMV envelope glycoprotein B is added. At this time, in separate wells, CMV envelope glycoprotein B is co-incubated with the test compounds and the standard assay protocol is followed. Test compounds which bind directly and irreversibly to heparin are identified by comparing the results of pre-incubation versus co-incubation experiments.
96-well ELISA plates are coated with Heparin-BSA, then blocked with BSA as described in Example 1. GBVP Hit Compounds, at final concentration 0.1-200 μM, are incubated in the ELISA plate for 90 min, and then washed with incubation buffer. After washing, GBVP is added to the wells pre-incubated with compounds. At the same time, in separate control wells, GBVP is co-incubated with Hit Compounds for 90 min. Following the incubation, GBVP bound to the plate is quantified by antibody conjugated to horse radish peroxidase and OD measurement as described in Example 1.

The subject of series [1] is Varicella Zoster Virus (VZV). The series can be described thus: Cytopathic effect (CPE) inhibition assay on Varicella Zoster Virus in HFF cells. Type of series: cell-based. Conditions: Human alphaherpesvirus 3, HFF, 240 h, ten days incubation. As to the method: Cytopathic effect (CPE) inhibition assays were performed on Varicella Zoster Virus (VZV) as follows. Low passage human foreskin fibroblast (HFF) cells were seeded into 96-well tissue culture plates 24 hours prior to use at a cell concentration of 2.5×10^5 cells per ml in 0.1 ml of MEM supplemented with 10% FBS. The cells were then incubated for 24 hours at 37° C. in a C02 incubator. After incubation, the medium was removed and 125 μl of candidate drug in growth medium (MEM with 10% FBS) was added to the first row in triplicate wells, all other wells containing 100 μl of media. The drug in the first row of wells was then diluted serially 1:5 throughout the remaining wells by transferring 25 μl using the Cetus liquid handling machine. After dilution of drug, 100 μl growth medium containing virus (2500 PFU per well) was added to each well, excluding cell control wells, which received 100 μl of growth medium only. The plates were then incubated at 37° C. in a CO2 incubator for ten days. After the incubation period, media was aspirated and the cells stained with a 0.1% crystal violet solution for four hours. The stain was then removed and the plates rinsed using tap water until all excess stain was removed. The plates were allowed to dry for 24 hours and then read on a BioTek plate reader at 620 nm. […]

Series [2] can be described thus: Neutral red uptake cytotoxicity assay. Conditions: human.
Series [3] is described as follows: Cytotoxicity in MDBK cells (IC50 used for SI). The series is classed as cell-based. Conditions: bovine, MDBK (Madin-Darby bovine kidney) cells, value paired with EC50 to give SI. From the text: (§1) Bovine viral diarrhea virus is related to HCV and may serve as a surrogate model for human hepatitis C virus (Yanagida K., et al., ibid).
The subject of series [4] is bovine viral diarrhea virus. The series can be described thus: Inhibition of bovine viral diarrhea virus in MDBK cells. Type of series: cell-based.
Text: as §1

In series [5] the target is T1, CMV envelope glycoprotein B binding to immobilized heparin (Human cytomegalovirus, UniProt P06473).
T1 construct: purchased Research Diagnostics, INC; RDI-RCMVAG-B
T1 sequence (P06473 32-906): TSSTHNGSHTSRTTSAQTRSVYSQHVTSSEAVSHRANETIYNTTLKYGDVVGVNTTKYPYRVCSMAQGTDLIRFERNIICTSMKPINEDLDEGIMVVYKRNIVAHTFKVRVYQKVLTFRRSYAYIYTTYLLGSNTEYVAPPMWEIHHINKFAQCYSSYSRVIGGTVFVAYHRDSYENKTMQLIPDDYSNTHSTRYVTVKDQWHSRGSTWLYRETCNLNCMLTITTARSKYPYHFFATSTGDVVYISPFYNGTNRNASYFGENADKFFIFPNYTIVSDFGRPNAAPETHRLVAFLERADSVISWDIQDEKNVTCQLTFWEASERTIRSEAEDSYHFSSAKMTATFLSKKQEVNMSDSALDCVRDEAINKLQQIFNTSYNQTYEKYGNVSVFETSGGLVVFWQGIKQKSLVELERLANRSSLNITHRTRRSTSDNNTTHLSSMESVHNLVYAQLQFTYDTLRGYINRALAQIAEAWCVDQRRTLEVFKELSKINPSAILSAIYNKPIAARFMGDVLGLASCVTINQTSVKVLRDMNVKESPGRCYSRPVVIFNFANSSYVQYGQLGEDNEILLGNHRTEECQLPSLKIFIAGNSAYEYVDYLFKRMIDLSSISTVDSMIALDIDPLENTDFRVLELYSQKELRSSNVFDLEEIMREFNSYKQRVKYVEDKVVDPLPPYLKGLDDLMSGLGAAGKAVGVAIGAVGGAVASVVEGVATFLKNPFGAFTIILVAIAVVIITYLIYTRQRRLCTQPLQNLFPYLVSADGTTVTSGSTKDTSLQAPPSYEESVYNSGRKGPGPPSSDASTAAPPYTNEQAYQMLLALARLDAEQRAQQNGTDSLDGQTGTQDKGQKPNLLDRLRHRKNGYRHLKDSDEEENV
The series can be described thus: Inhibition of CMV envelope glycoprotein B binding to immobilized heparin by soluble heparin. Conditions: soluble heparin 0.2-10 mg/ml, FIG. 2. The source says: The present invention discloses for the first time the use of CMV envelope glycoprotein B for compound screening and for direct targeting of GAG binding sites. The screening method of the present invention is based on an ELISA assay for CMV envelope glycoprotein B interaction with heparin on 96-well plates, suitable for screening compound collections, newly developed by the inventors of the present invention. The assay measures binding of CMV envelope glycoprotein B to immobilized heparin. The amount of bound CMV envelope glycoprotein B is determined by an ELISA assay using a monoclonal antibody conjugated to horseradish peroxidase. […] Soluble heparin was found according to the present invention to inhibit CMV envelope glycoprotein B binding to immobilized heparin (FIG. 2). This method can be used with other specific GBVPs such as HSV-1 glycoproteins B, C, and D, HHV-7 glycoprotein B, and HCV envelope protein. Additionally, other GAGs are capable of replacing heparin in this kind of assay. […]
Porcine intestinal mucosa heparin conjugated to Bovine Serum Albumin (Heparin-BSA; Sigma Cat. No. H0403) at 5 mg/ml in Phosphate Buffered Saline (PBS; pH 6.5) was added to a 96-well polystyrene ELISA plate (NLNC Cat. No. 442404; 0.1 ml per well) and incubated over night at 4° C. […] The Optical Density (OD) of the samples was measured at 450 nm using an ELISA plate reader (Dynatech MR5000).

Converted amounts (≈) assume the structure as drawn. Bounds are passed on as bounds.

Consider `O=C1C(=Cc2c(NCCCn3ccnc3)nc3ccccn3c2=O)SC(=S)N1Cc1ccccc1` [Compound 25, 4H-Pyrido[1,2-a]pyrimidin-4-one, 3-[(3-phenylmethyl-4-oxo-2-thioxo-5-thiazolidinylidene)methyl]-2-[[3-(1H-imidazol-1-yl)propyl]amino]-], for which, in the series on heparin, the “Inhibition (%) Co-incubation” value is recorded as 67% and the “Inhibition (%) Pre-Incubation” value was 89%.
As for `Cc1ccc2nc(N3CCN(C)CC3)c(C=C3SC(=S)N(Cc4ccccc4)C3=O)c(=O)n2c1` [Compound 5, 4H-Pyrido[1,2-a]pyrimidin-4-one, 3-[(3-phenylmethyl-4-oxo-2-thioxo-5-thiazolidinylidene)methyl]-2-(4-methyl-1-piperazinyl)-7-methyl-], in the series with heparin, the “Inhibition (%) Co-incubation” value came to 66% and the “Inhibition (%) Pre-Incubation” value worked out at 68%.
Take `CCCCN1C(=O)/C(=C/c2c(N3CCN(C)CC3)nc3c(C)cccn3c2=O)SC1=S` [Compound 10, 4H-Pyrido[1,2-a]pyrimidin-4-one, 3-[(3-butyl-4-oxo-2-thioxo-5-thiazol-idinylidene)methyl]-9-methyl-2-(4-methyl-1-piperazinyl)-]: in series [1], the midpoint of the response, the EC50, lay at 3.2 µg/mL (≈ 6.99 µM). Also, in the series on heparin, the “Inhibition (%) Co-incubation” value turned out to be 80% and the “Inhibition (%) Pre-Incubation” value was 73%. In series [2], the midpoint of cytotoxicity, the CC50 at 7 days, lay at 11.8 µg/mL (≈ 25.8 µM).
As for `O=C(CN1C(=O)C(=C2SC(=S)N(CCS(=O)(=O)O)C2=O)c2ccccc21)Nc1cccc(C(F)(F)F)c1` [Compound 11, 5-[1,2-dihydro-2-oxo-1-[2-oxo-2-[[3-(trifluoromethyl)phenyl]amino]ethyl]-3H-indol-3-ylidene]-4-oxo-2-thioxo-3-thiazolidineethanesulfonic acid], the concentration for a half-maximal effect (EC50) in series [1] was under 0.03 µg/mL. Moreover, the 50% cytotoxic concentration (CC50) at 7 days in series [2] was over 100 µg/mL.
In the case of `Cc1cccn2c(=O)c(C=C3SC(=S)N(Cc4ccccc4)C3=O)c(NCCN3CCOCC3)nc12` [Compound 26, 4H-Pyrido[1,2-a]pyrimidin-4-one, 3-[[3-(phenylmethyl)-4-oxo-2-thioxo-5-thiazolidinylidene]methyl]-2-[[2-(4-morpholinyl)ethyl]amino]-9-methyl-], in series [3], the IC50 was over 100 µM. In series [4], the SI is recorded as over 17. In addition, the EC50 in series [4] (Bovine viral diarrhea virus isolates and strains) is 6 µM.
For the compound heparin [Soluble heparin], the “Inhibition of CMV envelope glycoprotein B binding to immobilized heparin” value in series [5] was “inhibit”.

(Values after patent US20070179137A1, “Screening of anti-viral drugs and pharmaceuticals composition containing thiazolidinone derivatives” (priority 2004, published 2007).)
